We go through 23 compounds from PubChem BioAssay AID330 (DTP/NCI, 2004).

“And” between values parts separate entries of the source, which are not always exact repeats. Equal entries are not always repeated. Inconclusive results and toxic doses are left out.

The subject of the assay is P388 leukemia ip, CD2F1 mice, survival T/C. Briefly: NCI In Vivo Anticancer Drug Screen. Data for tumor model P388 Leukemia (intraperitoneal) in CD2F1 (CDF1) mice. Particulars: endpoint: median survival time, higher = longer survival. Summed up:
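Mice carrying the transplanted tumor received test compound or vehicle. Survival was recorded in each group, and the value is the treated-group measurement divided by that of the vehicle-treated control group.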

[1] abbreviates: dose: 50.0 mg/kg/injection, schedule: Q01DX009 (ip), vehicle: saline with Tween-80.
Setting [2] is: dose: 100.0 mg/kg/injection, schedule: Q01DX009 (ip), vehicle: saline with Tween-80.
[3] abbreviates: dose: 200.0 mg/kg/injection, schedule: Q01DX009 (ip), vehicle: saline with Tween-80.
Where [4] appears, read: dose: 60.0 mg/kg/injection, schedule: Q01DX005 (ip), vehicle: saline.
Setting [5] is: dose: 120.0 mg/kg/injection, schedule: Q01DX005 (ip), vehicle: saline.
[6] abbreviates: dose: 12.5 mg/kg/injection, schedule: Q01DX005 (ip), vehicle: Klucel (hydroxypropylcellulose) (HPC).
Setting [7] is: dose: 25.0 mg/kg/injection, schedule: Q01DX005 (ip), vehicle: Klucel (hydroxypropylcellulose) (HPC).
The mark [8] stands for this setting: dose: 50.0 mg/kg/injection, schedule: Q01DX005 (ip), vehicle: Klucel (hydroxypropylcellulose) (HPC).
Setting [9] is: dose: 100.0 mg/kg/injection, schedule: Q01DX005 (ip), vehicle: Klucel (hydroxypropylcellulose) (HPC).
Setting [10] is: dose: 200.0 mg/kg/injection, schedule: Q01DX005 (ip), vehicle: Klucel (hydroxypropylcellulose) (HPC).
The mark [11] stands for this setting: dose: 100.0 mg/kg/injection, schedule: Q04DX003 (ip), vehicle: saline with Tween-80.

With `COc1ccc2c(c1)C(c1ccccc1)SC(c1ccccc1)=C2` (stereo not drawn), the T/C (dose: 50.0 mg/kg/injection, schedule: Q01DX009 (ip), vehicle: Klucel (hydroxypropylcellulose) (HPC)) was 107 % of control; the T/C (dose: 100.0 mg/kg/injection, schedule: Q01DX009 (ip), vehicle: Klucel (hydroxypropylcellulose) (HPC)) is 100 % of control; the T/C (dose: 200.0 mg/kg/injection, schedule: Q01DX009 (ip), vehicle: Klucel (hydroxypropylcellulose) (HPC)) is 99 % of control.

Turning to `CC(=O)NSCC(NC(=O)OC(C)(C)C)C(=O)O` (stereo not drawn), the T/C reads like this: (dose: 50.0 mg/kg/injection, schedule: Q01DX005 (ip), vehicle: saline with Tween-80) 97 % of control; (dose: 100.0 mg/kg/injection, schedule: Q01DX005 (ip), vehicle: saline with Tween-80) 102 % of control; (dose: 200.0 mg/kg/injection, schedule: Q01DX005 (ip), vehicle: saline with Tween-80) 95 % of control.

`Cc1cnc2c([N+](=O)[O-])cc(C)c(C)c2c1`: the T/C under setting [1] was 99 % of control, the T/C under setting [2] was 99 % of control and the T/C under setting [3] was 92 % of control.

As for `COc1cc(C2c3cc4c(cc3CC3COC(=O)C32)OCO4)cc(OC)c1O` (stereo not drawn), the T/C by setting is: (dose: 0.5 mg/kg/injection, schedule: Q01DX009 (ip), vehicle: saline with Tween-80) 105 % of control; (dose: 1.0 mg/kg/injection, schedule: Q01DX009 (ip), vehicle: saline with Tween-80) 103 % of control; (dose: 2.0 mg/kg/injection, schedule: Q01DX009 (ip), vehicle: saline with Tween-80) 114 % of control; (dose: 3.1 mg/kg/injection, schedule: Q01DX009 (ip), vehicle: saline with Tween-80) 123 % of control; (dose: 4.0 mg/kg/injection, schedule: Q01DX009 (ip), vehicle: saline with Tween-80) 107 % of control.

Take `COc1cc2c[n+]3ccc4ccccc4c3c(N)c2cc1OC`: the T/C (dose: 50.0 mg/kg/injection, schedule: Q04DX003 (ip), vehicle: distilled water + Tween-80) was 97 % of control and the T/C (dose: 100.0 mg/kg/injection, schedule: Q04DX003 (ip), vehicle: distilled water + Tween-80) was 106 % of control.

As for `CC1NNC(=S)NN1`, the T/C is 101 % of control (dose: 15.0 mg/kg/injection, schedule: Q01DX005 (ip), vehicle: saline with Tween-80) and 101 % of control (dose: 30.0 mg/kg/injection, schedule: Q01DX005 (ip), vehicle: saline with Tween-80).

As to `CCCCCCCCCCCCCCCCCc1n[nH]c(=S)o1`, the T/C runs as follows: under setting [1], 99 % of control; under setting [2], 99 % of control; under setting [3], 98 % of control.

On to `COc1ccc2c(c1)nc(/C(C(=O)C(=O)c1ccccc1)=C(\O)c1ccccc1)c(C)[n+]2[O-]`, for which the T/C is 103 % of control under setting [4]; 104 % of control under setting [5]; 100 % of control (dose: 240.0 mg/kg/injection, schedule: Q01DX005 (ip), vehicle: saline).

As to `NC(Cc1ccc(Br)cc1)c1nn[nH]n1` (stereo not drawn), the T/C was 104 % of control (dose: 25.0 mg/kg/injection, schedule: Q01DX009 (ip), vehicle: saline with Tween-80); 100 % of control under setting [1]; 100 % of control under setting [2].

Take `CCOc1ccc(-c2nn(C(=O)c3ccccc3)c(-c3ccccc3)c2N=Nc2ccc(S(=O)(=O)Nc3nnc(C)s3)cc2)cc1`: the T/C is 93 % of control (dose: 100.0 mg/kg/injection, schedule: Q04DX002 (ip), vehicle: saline with Tween-80); 89 % of control (dose: 200.0 mg/kg/injection, schedule: Q04DX002 (ip), vehicle: saline with Tween-80); 93 % of control (dose: 400.0 mg/kg/injection, schedule: Q04DX002 (ip), vehicle: saline with Tween-80).

Take `O=S1(=O)CS(=O)(=O)OCCCCCO1`: the T/C was 161 % of control (dose: 6.25 mg/kg/injection, schedule: Q01DX005 (ip), vehicle: Klucel (hydroxypropylcellulose) (HPC)); 211 % of control and 213 % of control under setting [6]; 255 % of control and 288 % of control under setting [7]; 165 % of control and 288 % of control under setting [8].

Regarding `[O-]c1on[n+](-c2ccccc2)c1CN1CCOCC1`, the T/C was 107 % of control under setting [8], 111 % of control under setting [9] and 102 % of control under setting [10].

For `COC1OCC(NC(=O)c2ccccc2)C(OS(C)(=O)=O)C1OS(C)(=O)=O` (stereo not drawn), the T/C is, setting by setting: (dose: 12.5 mg/kg/injection, schedule: Q01DX009 (ip), vehicle: other) 97 % of control; (dose: 25.0 mg/kg/injection, schedule: Q01DX009 (ip), vehicle: other) 87 % of control; (dose: 50.0 mg/kg/injection, schedule: Q01DX009 (ip), vehicle: other) 106 % of control; (dose: 100.0 mg/kg/injection, schedule: Q01DX009 (ip), vehicle: other) 95 % of control; (dose: 200.0 mg/kg/injection, schedule: Q01DX009 (ip), vehicle: other) 88 % of control.

Regarding `O=[N+]([O-])c1ccc(N2C(c3ccccc3)=N[C@@H](N3CCCCC3)[C@@H]2N2CCCCC2)cc1`, the T/C is, setting by setting: under setting [8], 97 % of control; under setting [9], 100 % of control; under setting [10], 93 % of control.

For the compound `CN(CCC(CCC(=O)O)(C(=O)O)c1ccccc1)Cc1ccccc1` (stereo not drawn), the T/C is 92 % of control under setting [8], 100 % of control under setting [9] and 98 % of control under setting [10].

Consider `CS(=O)CCCN=C=S` (stereo not drawn), for which the T/C by setting is: (dose: 18.75 mg/kg/injection, schedule: Q01DX009 (ip), vehicle: saline with Tween-80) 111 % of control; (dose: 37.5 mg/kg/injection, schedule: Q01DX009 (ip), vehicle: saline with Tween-80) 110 % of control; (dose: 75.0 mg/kg/injection, schedule: Q01DX009 (ip), vehicle: saline with Tween-80) 111 % of control.

Regarding `CN1C2=NC(=O)NC(=O)C23OC3c2ccccc21` (stereo not drawn) (tested in a mixture with another compound), the T/C was 102 % of control under setting [8] and 103 % of control under setting [9].

Turning to `S=c1sc2ccccc2n1CCNc1ccccc1`, the T/C under setting [2] is 90 % of control; the T/C under setting [11] is 90 % of control; the T/C under setting [3] is 90 % of control; the T/C (dose: 200.0 mg/kg/injection, schedule: Q04DX003 (ip), vehicle: saline with Tween-80) was 95 % of control; the T/C (dose: 400.0 mg/kg/injection, schedule: Q01DX009 (ip), vehicle: saline with Tween-80) is 86 % of control; the T/C (dose: 400.0 mg/kg/injection, schedule: Q04DX003 (ip), vehicle: saline with Tween-80) was 104 % of control.

For `CC1(C)CC(NCCCN(CCO)CCO)CC(C)(C)N1O`, the T/C (dose: 30.0 mg/kg/injection, schedule: Q01DX005 (ip), vehicle: saline) was 96 % of control; the T/C under setting [4] was 99 % of control; the T/C under setting [5] is 96 % of control.

On to `[Cl][Pd][Cl].[NH-]C(CC(N)=O)C(=O)O` (stereo not drawn), for which the T/C is 101 % of control under setting [6]; 95 % of control under setting [7]; 100 % of control and 113 % of control under setting [8].

Consider `Cl/N=C1C=C/C(=N\Cl)C=C/1Cl`, for which the T/C (dose: 6.25 mg/kg/injection, schedule: Q01DX005 (ip), vehicle: saline with Tween-80) is 110 % of control; the T/C (dose: 12.5 mg/kg/injection, schedule: Q01DX005 (ip), vehicle: saline with Tween-80) is 110 % of control; the T/C (dose: 25.0 mg/kg/injection, schedule: Q01DX005 (ip), vehicle: saline with Tween-80) is 107 % of control.

For the compound `[O-][n+]1ccccc1C1CO1` (stereo not drawn), the T/C is 105 % of control (dose: 6.25 mg/kg/injection, schedule: Q01DX009 (ip), vehicle: saline); 103 % of control (dose: 12.5 mg/kg/injection, schedule: Q01DX009 (ip), vehicle: saline); 102 % of control (dose: 25.0 mg/kg/injection, schedule: Q01DX009 (ip), vehicle: saline); 88 % of control (dose: 100.0 mg/kg/injection, schedule: Q01DX009 (ip), vehicle: saline).

Regarding `O=[N+]([O-])c1ccsc1SSc1sccc1[N+](=O)[O-]`, the T/C (dose: 25.0 mg/kg/injection, schedule: Q04DX003 (ip), vehicle: saline with Tween-80) was 102 % of control; the T/C (dose: 50.0 mg/kg/injection, schedule: Q04DX003 (ip), vehicle: saline with Tween-80) was 102 % of control; the T/C (dose: 100.0 mg/kg/injection, schedule: Q01DX001 (ip), vehicle: Klucel (hydroxypropylcellulose) (HPC)) was 102 % of control; the T/C under setting [11] was 100 % of control; the T/C (dose: 200.0 mg/kg/injection, schedule: Q01DX001 (ip), vehicle: Klucel (hydroxypropylcellulose) (HPC)) is 102 % of control; the T/C (dose: 400.0 mg/kg/injection, schedule: Q01DX001 (ip), vehicle: Klucel (hydroxypropylcellulose) (HPC)) is 96 % of control.
